Measurements: US8367873B2, “Phenyl-substituted bicyclooctane-1,3-dione derivatives” (Bayer Cropscience AG, priority 2008, dated 2013)

How the values were obtained:
Type in all cases: in vivo
[1] = system: Alopecurus myosuroides; test: Herbicidal pre-emergence action; conditions: pre-emergence method, 80 g/ha, greenhouse, visual assessment vs untreated controls
Text: (§1) Seeds of monocotylidonous and dicotylidonous weed and crop plants are placed in sandy loam in wood fibre pots and covered with soil. The test compounds, formulated in the form of wettable powders (WP), are then, as an aqueous suspension with a water application rate of 600 l/ha (converted), with 0.2% of wetting agent added, applied to the surface of the covering soil in different amounts.
(§2) After the treatment, the pots are placed in a greenhouse and kept under good growth conditions for the test plants. The visual assessment of the emergence damage on the test plants is carried out after a trial period of three weeks by comparison with the untreated controls (herbicidal effect in percent: 100% effect=the plants have died, 0% effect=like control plants).

[2] = system: Echinocloa crus-galli; test: Herbicidal pre-emergence action; conditions: pre-emergence method, 80 g/ha, greenhouse, visual assessment vs untreated controls
Text: as §1, §2

[3] = system: Lolium multiflorum; test: Herbicidal pre-emergence action; conditions: pre-emergence method, 80 g/ha, greenhouse, visual assessment vs untreated controls
Text: as §1, §2

[4] = system: Setaria viridis; test: Herbicidal pre-emergence action; conditions: pre-emergence method, 80 g/ha, greenhouse, visual assessment vs untreated controls
Text: as §1, §2

[5] = system: Alopecurus myosuroides; test: Herbicidal post-emergence action; conditions: post-emergence method, 80 g/ha
Procedure: (§3) Seeds of monocotylidonous and dicotylidonous weed and crop plants are placed in sandy loam in wood fibre pots, covered with soil and cultivated in a greenhouse under good growth conditions. Two to three weeks after sowing, the test plants are treated at the one-leaf stage. The test compounds, formulated as wettable powders (WP), are then with a water application rate of 600 l/ha (converted), with 0.2% of wetting agent added, sprayed onto the green parts of the plants in different amounts. After the test plants have been kept in the greenhouse under optimum growth conditions for about three weeks, the effect of the preparations is assessed visually in comparison to untreated controls (herbicidal effect in percent: 100% effect=the plants have died, 0% effect=like control plants).

[6] = system: Echinocloa crus-galli; test: Herbicidal post-emergence action; conditions: post-emergence method, 80 g/ha
Procedure: as §3

[7] = system: Lolium multiflorum; test: Herbicidal post-emergence action; conditions: post-emergence method, 80 g/ha
Procedure: as §3

[8] = system: Setaria viridis; test: Herbicidal post-emergence action; conditions: post-emergence method, 80 g/ha
Procedure: as §3

[9] = system: monocotylidonous and dicotylidonous weed and crop plants; test: Herbicidal post-emergence action (other test plants); conditions: post-emergence method, 80 g/ha
Procedure: as §3

[10] = system: monocotylidonous and dicotylidonous weed and crop plants; test: Herbicidal pre-emergence action (other test plants); conditions: pre-emergence method, 80 g/ha, greenhouse, visual assessment vs untreated controls
Text: as §1, §2

Structure (SMILES)	herbicidal effect ALOMY [1] [%]	herbicidal effect ECHCG [2] [%]	herbicidal effect LOLMU [3] [%]	herbicidal effect SETVI [4] [%]	herbicidal effect against ALOMY (Alopecurus myosuroides) [5] [%]	herbicidal effect against ECHCG (Echinochloa crus-galli) [6] [%]	herbicidal effect against LOLMU (Lolium multiflorum) [7] [%]	herbicidal effect against SETVI (Setaria viridis) [8] [%]	herbicidal effect against AVEFA (Avena fatua) [9] [%]	herbicidal effect AVEFA [10] [%]
CCc1cc(C)cc(CC)c1C1=C(OC(=O)C(C)(C)C)C2CC3(CC2C1=O)OCCS3 (mixture of isomers) [I-b-19]	100	100	100	90	20	100	40	80	30	
CCc1cc(C)cc(CC)c1C1=C(OC(=O)OC)C2CC3(CC2C1=O)OC(C)CC(C)O3 (mixture of isomers) [I-c-24]	90	70	100	70	100	100	100	100	80	
CCc1cc(C)cc(CC)c1C1=C(O)[C@H]2CC(=NOC(C)C)C[C@H]2C1=O (relative stereo) [I-a-29]	90	70	80	20	100	100	100	80	60	
CCc1cc(C)cc(CC)c1C1=C(O)[C@H]2CC(=NOC3CC3)C[C@H]2C1=O (relative stereo) [I-a-30]	80		70	70	90	100	90	50	0	0
Cc1cc(C)c(C2=C(O)C3CC4(CC3C2=O)OCC=CCO4)c(C)c1 (stereo not drawn) [I-a-41]	60	50	100		100	90	100	100	40	60
CCc1cc(C)cc(CC)c1C1=C(OC(=O)C(C)(C)C)C2CC3(COC(C)(C)O3)CC2C1=O (stereo not drawn) [I-b-5]	90	10	100	60	90	80	100	0	20	
CCc1cc(C)cc(CC)c1C1=C(OC(=O)C(C)C)C2CC3(CC2C1=O)OC(C)CC(C)O3 (stereo not drawn) [I-b-15]	80	100	80		100	100	100	100	90	50
CCc1cc(C)cc(CC)c1C1=C(OC(=O)C(C)(C)C)C2CC3(CC2C1=O)OCCCO3 (stereo not drawn) [I-b-27]		100	100	70	100	100	100	100	100	70
CCc1cc(C)cc(CC)c1C1=C(OC(=O)C(C)C)C2CC3(CC2C1=O)OCCCO3 (stereo not drawn) [I-b-29]		100	100	80	100	100	100	100	90	70
Cc1cc(C)c(C2=C(OC(=O)C(C)C)C3CC4(CC3C2=O)OCC=CCO4)c(C)c1 (stereo not drawn) [I-b-42]		60	100	90	100	100	100	100	80	70
COc1cc(C)cc(C)c1C1=C(OC(=O)C(C)C)C2CC3(CC2C1=O)OCC=CCO3 (stereo not drawn) [I-b-63]	70	100	100	70	100	100	100	100	100	
CCc1cc(C)cc(C)c1C1=C(OC(=O)C(C)C)C2CC3(CC2C1=O)OCCCCO3 (stereo not drawn) [I-b-77]	60		90	60	100	100	100	90	60	40
CCOC(=O)OC1=C(c2c(CC)cc(C)cc2CC)C(=O)C2CC3(CC12)OCC(OCc1ccccc1)CO3 (stereo not drawn) [I-c-28]	90	100		50	100	100	100	100	100	60
CCc1cc(C)cc(CC)c1C1=C(OC(=O)OC)C2CC3(CC2C1=O)OCCCO3 (stereo not drawn) [I-c-35]	80		100	70	100	100	100	100	100	70
C=C1CC2C(=O)C(c3c(C)cc(C)cc3OC)=C([O-])C2C1.[Na+] (stereo not drawn) [I-f-22]	80		80	100	30	100	80	100	40	70
